Experimental data published in patent publication US8637528B2, “Use of PDE7 inhibitors for the treatment of movement disorders” (Omeros Corporation, priority 2007, dated 2014).
Entries after “also recorded” stand apart in the source; their conditions may differ. Like-named read-outs stand apart in the source and are kept apart here. Blank lines part the entries; values can stand above or below the compound they belong to.

Legend:
[1] = molecular target: T1, Catechol-O-Methyltransferase (COMT) (Sus scrofa, UniProt D3K5L3); experiment: biochemical; format: biochemical, pig
T1 sequence (D3K5L3 1-270): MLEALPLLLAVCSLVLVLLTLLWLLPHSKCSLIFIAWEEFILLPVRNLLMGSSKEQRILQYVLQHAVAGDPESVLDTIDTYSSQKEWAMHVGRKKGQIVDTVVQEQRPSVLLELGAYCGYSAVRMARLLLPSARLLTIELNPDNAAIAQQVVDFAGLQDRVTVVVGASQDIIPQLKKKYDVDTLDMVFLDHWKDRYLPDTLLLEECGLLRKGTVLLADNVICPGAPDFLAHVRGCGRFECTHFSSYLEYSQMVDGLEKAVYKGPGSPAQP

[2] = molecular target: T1, Catechol-O-Methyltransferase (COMT); conditions: read-out: Positive Control Expected IC50 (historical), COMT; historical value; cited from earlier work
PDE7A = PDE7A (Homo sapiens (Human), UniProt Q13946); experiment: PDE7 phosphodiesterase scintillation proximity assay (SPA), PDE7A; format: biochemical
Chain of PDE7A (Q13946 whole entry, looked up): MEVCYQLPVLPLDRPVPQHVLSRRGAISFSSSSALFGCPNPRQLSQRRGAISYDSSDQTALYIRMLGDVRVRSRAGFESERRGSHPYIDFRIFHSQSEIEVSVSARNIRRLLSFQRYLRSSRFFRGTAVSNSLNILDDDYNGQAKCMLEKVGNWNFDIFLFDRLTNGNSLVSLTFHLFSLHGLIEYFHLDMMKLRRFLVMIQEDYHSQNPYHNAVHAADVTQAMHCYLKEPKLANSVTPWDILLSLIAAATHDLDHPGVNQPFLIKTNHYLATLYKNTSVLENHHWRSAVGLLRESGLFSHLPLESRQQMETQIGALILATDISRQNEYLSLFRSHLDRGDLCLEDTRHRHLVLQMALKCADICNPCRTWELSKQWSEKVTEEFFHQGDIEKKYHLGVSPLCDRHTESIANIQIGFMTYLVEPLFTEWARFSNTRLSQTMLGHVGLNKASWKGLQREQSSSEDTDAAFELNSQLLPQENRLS

[3] = plasma and brain concentration in mice after intraperitoneal injection (LC/MS/MS); format: in vivo, mouse; conditions: mouse, at 0.5 mg/kg, analogous calculation
Method: Adult male C57BL/6J; retired breeders, aged between 7-9 months (Jackson Laboratory, Bar Harbor, Me., USA), singly housed.
Just prior to the harvesting of tissues, mice were anesthetized with avertin. Samples of whole brain or plasma were collected from three animals per time point at 15 minutes, 30 minutes, 60 minutes, 120 minutes, and 240 minutes after injection. Blood samples were collected by retro-orbital bleeding. Plasma was prepared and red cells were removed by centrifugation. The mice were perfused with saline to remove contaminating blood. The brains were removed and rapidly frozen in liquid nitrogen for subsequent analysis. The plasma and brain samples were stored at −80° C. or on dry ice and the concentration of compound was determined by LC/MS/MS analysis as follows:
Whole brain tissue was homogenized using a Mini-Beaddeater-8™ (BioSpec Products, Bartlesville, Okla.). Plasma or homogenized brain samples were precipitated with acetonitrile and filtered in 96-well format using Captiva 0.20 micron filtration plates (Varian Corp, Lake Forest, Calif.). Filtrates were evaporated under nitrogen to dryness at 50° C. and were then reconstituted for LC-MS analysis.
Quantitative measurements for inhibitory compound in plasma and brain samples were obtained using a Thermo Ultra triple quadrupole mass spectrometer (Thermo Fisher Scientific, San Jose, Calif.), utilizing electrospray ionization in the multiple reaction monitoring mode of data acquisition. Sample extracts were injected onto a 2.1×30 mm packed Xterra C18-MS high pressure liquid chromatography (HPLC) column (Waters Corp, Milford, Mass.). The mobile phase eluting the compound from the HPLC column was applied using a Thermo Surveyor MS Plus HPLC quaternary pumping system (Thermo Fisher Scientific, San Jose, Calif.) and a HTC PAL autoinjector (LEAP Technologies, Chapel Hill, N.C.).

MPTP-treated mice = experiment: inked paw stride length in the MPTP mouse model of Parkinson's disease, panel of PDE7 inhibitors (Example 7); format: in vivo; conditions: 20 minutes after dose
Method: Adult male C57BL/6J; retired breeders, aged between 7-9 months Charles River Laboratories, Wilmington, Mass.), singly housed. Three groups of 35 mice were tested in series one week apart.
Mice received 2 subcutaneous injections of methylphenyltetrahydropyridine (“MPTP”) at a dose of 15 mg/kg (free base) with a 10-12 hour interval between injections. Control mice (sham lesion groups) were administered saline instead of MPTP.
Prior to injection with MPTP or saline, animals were pre-trained to walk across a clean sheet of paper into their home cage without stopping. For assessment of stride length, animals had their forepaws placed in black ink and the length of forepaw steps during normal walking (in a straight line only) was measured. The animals were immediately put back into their home cage upon completion of the task. Stride length was determined by measuring the distance between each step on the same side of the body, measuring from the middle toe of the first step to the heel of the second step. An average of at least four clear steps was calculated. The schedule for this experiment was as follows:
Because of the wide variation in aqueous solubility among these compounds, a number of different formulations were required. L-dopa was administered in 100 μl of phosphate buffered saline. For animals treated with L-dopa, the dopa decarboxylase inhibitor benserazide (100 μL of a 12.5 mg/kg solution) was administered 15 minutes prior to treatment with L-dopa in order to minimize the destruction of L-dopa in the peripheral blood. […] Therefore, the treatment effects observed are due solely to the PDE7 inhibitory compounds themselves. […] This phenomenon of “overshoot” has also been observed with L-dopa in MPTP-treated mice in which lower doses ameliorate hypoactivity while higher doses induce dyskinesias or uncontrolled movements (Lundblad M. et al., Exp Neurol.194(1):66-75 (2005); Pearce R. K. et al., Mov Disord. 10(6):731-40 (1995); Fredriksson, A. et al, Pharmacol-Toxicol. 67(4): 295-301 (1990)).
Retired breeder male mice were treated with either saline or 2×15 mg/kg MPTP to induce a Parkinsonian state (neurochemical loss of dopamine with corresponding behavioral deficits). On day one baseline stride length was measured and then mice were treated with either MPTP or with saline as a control. On day eight stride length was measured again, and the control value for stride length was derived from the stride length of saline-treated animals. The animals were then divided randomly into treatment groups. Compound OM955 (compound 3) was tested at 0.1 mg/kg, at 0.5 mg/kg, and at 0.1 mg/kg in combination with 1 mg/kg L-dopa.

PDE7B = PDE7B (Homo sapiens (Human), UniProt Q9NP56); experiment: PDE7 phosphodiesterase scintillation proximity assay (SPA), PDE7B; format: biochemical
Chain of PDE7B (Q9NP56 107-450 limits assumed): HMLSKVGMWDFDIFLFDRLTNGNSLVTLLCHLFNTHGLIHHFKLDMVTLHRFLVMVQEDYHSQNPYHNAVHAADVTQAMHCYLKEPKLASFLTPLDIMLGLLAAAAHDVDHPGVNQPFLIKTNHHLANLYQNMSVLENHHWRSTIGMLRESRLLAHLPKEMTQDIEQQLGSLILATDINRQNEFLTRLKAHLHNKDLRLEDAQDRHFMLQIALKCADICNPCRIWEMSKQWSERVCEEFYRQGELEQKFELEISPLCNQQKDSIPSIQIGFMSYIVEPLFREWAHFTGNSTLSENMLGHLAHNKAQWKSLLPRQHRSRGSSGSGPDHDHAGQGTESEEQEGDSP

Tyrosine Hydroxylase [4] = molecular target: T2, Tyrosine Hydroxylase (Rattus norvegicus (Rat), UniProt P04177); conditions: historical value; read-out: Positive Control Expected IC50 (historical), Tyrosine Hydroxylase; cited from earlier work
T2 sequence (P04177 whole entry): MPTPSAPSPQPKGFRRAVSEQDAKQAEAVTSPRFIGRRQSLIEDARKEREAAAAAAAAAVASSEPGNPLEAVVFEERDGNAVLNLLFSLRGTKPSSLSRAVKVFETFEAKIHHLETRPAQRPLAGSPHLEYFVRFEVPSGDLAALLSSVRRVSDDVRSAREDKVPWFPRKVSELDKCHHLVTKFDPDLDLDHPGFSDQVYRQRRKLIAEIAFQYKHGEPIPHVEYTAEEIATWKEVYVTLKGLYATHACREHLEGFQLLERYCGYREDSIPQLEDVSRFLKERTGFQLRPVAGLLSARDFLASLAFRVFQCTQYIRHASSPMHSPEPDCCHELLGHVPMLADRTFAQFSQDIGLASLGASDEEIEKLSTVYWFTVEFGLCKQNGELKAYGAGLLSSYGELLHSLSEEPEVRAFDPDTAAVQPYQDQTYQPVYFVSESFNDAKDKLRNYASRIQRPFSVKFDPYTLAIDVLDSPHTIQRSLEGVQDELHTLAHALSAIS

Tyrosine Hydroxylase [5] = molecular target: T2, Tyrosine Hydroxylase; experiment: Tyrosine Hydroxylase enzyme assay; format: biochemical; conditions: read-out: Positive Control Observed IC50, Tyrosine Hydroxylase
Method: Tyrosine Hydroxylase was assayed as described in Roskoski, R., Jr., et al., J. Biochem 218:363-370 (1993) with the following modifications. Tyrosine Hydroxylase was isolated from Wistar rat brain. The substrate was 100 μM L-[3,5-^3H]Tyrosine+L-Tyrosine. The vehicle control was 1% DMSO. Compound OM69 was tested at 10 μM in incubation buffer (125 mM MES, pH 6.0, 0.5 mg/ml Catalase, 12.5 mM DTT, 0.5 mM (6R)-5,6,7,8-Tetrahydrobiopterin). The reaction was pre-incubated for 15 minutes at 37° C. Tyrosine Hydroxylase enzyme was added, and the reaction was incubated for 20 minutes at 37° C. [^3H]-H20 was quantitated.

Compound: O=[N+]([O-])c1cc(O)c(O)c([N+](=O)[O-])c1 [3,5-Dinitrocatechol, reference compound]
IC50 [1]: 606 nM
IC50 [2]: 310 nM

potency of PDE7A inhibition, in words (PDE7A): moderate potency
maximal brain concentration at dose where efficacy was observed [3]: 5260 nM
potency of PDE7B inhibition, in words (PDE7B): moderate potency
Compound: CC(=O)Nc1ccc(-c2nn(C)/c(=N/C3CCCCC3)s2)cc1 [OM956]
effect on stride length, in words (MPTP-treated mice; OM956 0.5 mg/kg): statistically significant increase; also recorded: full recovery of baseline stride length

potency of PDE7A inhibition, in words (PDE7A): high potency
maximal brain concentration at dose where efficacy was observed [3]: 358 nM
potency of PDE7B inhibition, in words (PDE7B): high potency
IC50 (PDE7B; unit inferred): 9.27 nM
Compound: COc1cc(N)ccc1-c1nc2c(C)nn(C3CCCCC3)c2c(=O)[nH]1 [OM056]
effect on stride length, in words (MPTP-treated mice; OM056 0.05 mg/kg): statistically significant increase; also recorded: full recovery of baseline stride length

Compound: C[C@](N)(Cc1ccc(O)cc1)C(=O)O [α-Methyl-L-P-Tyrosine, reference compound]
IC50 (Tyrosine Hydroxylase [4]): 20000 nM
IC50 (Tyrosine Hydroxylase [5]): 20200 nM
